Test results reported in the supplement of paper PMC10307832.

Assays:
Test in all cases: relative viability (nuclei count vs DMSO), 5 days (fraction); higher = more cells survive
[1] = compound: CC1=NC=CC(=C1)C2=CC=C(C=C2)CC(=O)NC3=CC=C(C=C3)C4=CN=CC=C4 [Wnt-C59] + CC(=O)c1c(C)c2cnc(Nc3ccc(N4CCNCC4)cn3)nc2n(C2CCCC2)c1=O [Palbociclib] (partner 0.5 µM)
How it was run: (§1)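 Lung cancer cell lines in 1536-well plates got either a single drug or a fixed anchor-drug dose together with five library-drug doses (not always all listed) in √10 steps, by pin tool, on the day after seeding. Nuclei were counted after 5 days, and relative viability is the treated-to-vehicle ratio of nuclei counts. Values are medians of duplicate plates.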

[2] = compound: CC1=NC=CC(=C1)C2=CC=C(C=C2)CC(=O)NC3=CC=C(C=C3)C4=CN=CC=C4 [Wnt-C59] + Cc1nc(Nc2ncc(C(=O)Nc3c(C)cccc3Cl)s2)cc(N2CCN(CCO)CC2)n1 [Dasatinib] (partner 0.075 µM)
How it was run: as §1

[3] = compound: CS(=O)(=O)CCNCc1ccc(-c2ccc3ncnc(Nc4ccc(OCc5cccc(F)c5)c(Cl)c4)c3c2)o1 [Lapatinib] + COc1cccc2cc(-c3nc([C@H]4CC[C@H](C(=O)O)CC4)n4ncnc(N)c34)[nH]c12 [OSI-027] (partner 0.5 µM)
How it was run: as §1

[4] = compound: CS(=O)(=O)CCNCc1ccc(-c2ccc3ncnc(Nc4ccc(OCc5cccc(F)c5)c(Cl)c4)c3c2)o1 [Lapatinib] + Nc1nc2[nH]cc(CCc3ccc(C(=O)N[C@@H](CCC(=O)O)C(=O)O)cc3)c2c(=O)[nH]1 [Pemetrexed] (partner 0.2 µM)
How it was run: as §1

Cell Line	relative viability ([1]; first compound 0.001 µM)	relative viability ([1]; first compound 0.01 µM)	relative viability ([1]; first compound 0.03162 µM)	relative viability ([1]; first compound 0.1 µM)	relative viability ([2]; first compound 0.001 µM)	relative viability ([2]; first compound 0.01 µM)	relative viability ([2]; first compound 0.03162 µM)	relative viability ([2]; first compound 0.1 µM)	relative viability ([3]; first compound 0.02 µM)	relative viability ([3]; first compound 0.06325 µM)	relative viability ([3]; first compound 0.2 µM)	relative viability ([3]; first compound 0.6325 µM)	relative viability ([3]; first compound 2 µM)	relative viability ([4]; first compound 0.02 µM)	relative viability ([4]; first compound 0.06325 µM)	relative viability ([4]; first compound 0.2 µM)	relative viability ([4]; first compound 0.6325 µM)	relative viability ([4]; first compound 2 µM)
NCI-H2009	0.231	0.149	0.198	0.239	0.31	0.331	0.311	0.311	0.64	0.557	0.681	0.764	0.66	0.972	1.02	1.05	0.98	0.998
LC-2-ad	0.484	0.509	0.536	0.505	0.696	0.73	0.53	0.559	–	0.49	0.767	0.764	0.619	–	0.29	0.264	0.271	0.232
NCI-H647	0.346	0.326	0.388	0.316	0.193	0.166	0.2	0.152	0.635	0.488	0.527	0.689	0.642	0.176	0.149	0.162	0.168	0.158
HCC-78	0.476	0.488	0.494	0.455	0.392	0.428	0.387	0.419	–	0.324	0.315	0.381	0.344	–	0.832	0.882	0.841	0.936
H3255	0.354	0.331	0.302	0.311	0.425	0.359	0.32	0.335	0.577	0.524	0.505	0.431	0.236	0.514	0.514	0.544	0.504	0.407
